Data taken from patent US11661426B2, “Imidazole-containing inhibitors of ALK2 kinase” (BioCryst Pharmaceuticals, Inc., priority 2017, dated 2023).

Molecular target: ALK2 (Homo sapiens (Human), UniProt Q04771)
Assay: ALK2 inhibition, LanthaScreen Eu Kinase Binding Assay (ThermoFisher Scientific / Life Technologies)
Conditions: read-out: Measured Ki (IC50) Value for Compounds: IC50
Method: Biochemical assays to measure the inhibitory effects of the compounds were performed by ThermoFisher Scientific (Life Technologies). ALK2 inhibition was tested using LanthaScreen™ Eu Kinase Binding Assay screening protocol.

Chain of ALK2 (Q04771 21-509): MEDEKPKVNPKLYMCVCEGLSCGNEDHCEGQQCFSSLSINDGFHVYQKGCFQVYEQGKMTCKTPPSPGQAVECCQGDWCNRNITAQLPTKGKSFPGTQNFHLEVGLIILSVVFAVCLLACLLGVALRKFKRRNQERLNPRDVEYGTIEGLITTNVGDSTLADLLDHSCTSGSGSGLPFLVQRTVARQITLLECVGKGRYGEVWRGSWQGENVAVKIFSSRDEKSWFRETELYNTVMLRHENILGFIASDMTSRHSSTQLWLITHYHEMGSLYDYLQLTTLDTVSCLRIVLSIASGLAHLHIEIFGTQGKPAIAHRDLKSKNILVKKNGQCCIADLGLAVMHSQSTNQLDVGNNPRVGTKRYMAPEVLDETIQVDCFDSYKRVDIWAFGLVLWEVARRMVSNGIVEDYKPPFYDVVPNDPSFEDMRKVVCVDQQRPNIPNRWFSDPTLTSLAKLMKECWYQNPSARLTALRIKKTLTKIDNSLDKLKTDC

Row | Structure (SMILES) | IC50
1 | OC[C@@H]1CCCN1c1nc(Nc2nc3ccccc3o2)c2sccc2n1 [Compound 352c, (S)-(1-(4-(benzo[d]oxazol-2-ylamino)thieno[3,2-d]pyrimidin-2-yl)pyrrolidin-2-yl)methanol] | > 1000 nM
2 | Nc1n[nH]c2ccccc12 [Compound 353a, 1H-indazol-3-amine] | > 1000 nM
3 | OC[C@@H]1CCCN1c1nc(Nc2cc(-c3ccccc3)[nH]n2)nc2ccoc12 [Compound 354b, (S)-(1-(2-((5-phenyl-1H-pyrazol-3-yl)amino)furo[3,2-d]pyrimidin-4-yl)pyrrolidin-2-yl)methanol] | > 1000 nM
4 | COC(=O)c1cc(-n2cnc(Nc3nc(N4CCC[C@H]4CO)c4cccn4n3)c2)cc(OC)c1OC [Compound 355a, (S)-methyl 5-(4-((4-(2-(hydroxymethyl)pyrrolidin-1-yl)pyrrolo[2,1-f][1,2,4]triazin-2-yl)amino)-1H-imidazol-1-yl)-2,3-dimethoxybenzoate] | < 100 nM
5 | COc1cc(-c2ccc(Nc3nc(N4CCC[C@H]4CO)c4ccccc4n3)nc2)cc(OC)c1OC [Compound 357d, (S)-(1-(2-((5-(3,4,5-trimethoxyphenyl)pyridin-2-yl)amino)quinazolin-4-yl)pyrrolidin-2-yl)methanol] | > 1000 nM
6 | COc1cc(-n2cnc(Nc3nc4c(c(N5CCC[C@H]5CO)n3)CN(C(=O)OC(C)(C)C)C4)c2)cc(OC)c1OC [Compound 359c, (S)-tert-butyl 4-(2-(hydroxymethyl)pyrrolidin-1-yl)-2-(1-(3,4,5-trimethoxyphenyl)-1H-imidazol-4-ylamino)-5H-pyrrolo[3,4-d]pyrimidine-6(7H)-carboxylate] | < 100 nM
7 | COc1cc(-n2cnc(Nc3nc(N4CCC[C@H]4CO)c4ccc(-c5cccc(N)c5)cc4n3)c2)cc(OC)c1OC [Compound 361c, (S)-(1-(7-(3-aminophenyl)-2-((1-(3,4,5-trimethoxyphenyl)-1H-imidazol-4-yl)amino)quinazolin-4-yl)pyrrolidin-2-yl)methanol] | < 100 nM
8 | COc1cc(-n2cnc(Nc3nc(N4CCC[C@H]4CO)c4ccc(-c5cccc(F)c5)cc4n3)c2)cc(OC)c1OC [Compound 362b, (S)-(1-(7-(3-fluorophenyl)-2-((1-(3,4,5-trimethoxyphenyl)-1H-imidazol-4-yl)amino)quinazolin-4-yl)pyrrolidin-2-yl)methanol] | < 100 nM
9 | COc1cc(-n2cnc(Nc3nc(N4CCC[C@H]4CO)c4ccc(-c5cccc(NS(C)(=O)=O)c5)cc4n3)c2)cc(OC)c1OC [Compound 363b, (S)—N-(3-(4-(2-(hydroxymethyl)pyrrolidin-1-yl)-2-((1-(3,4,5-trimethoxyphenyl)-1H-imidazol-4-yl)amino)quinazolin-7-yl)phenyl)methanesulfonamide] | < 100 nM
10 | COc1cc(-n2cnc(Nc3nc(N4CCC[C@H]4CO)c4ccc(-c5cccc(NC(C)=O)c5)cc4n3)c2)cc(OC)c1OC [Compound 364b, (S)—N-(3-(4-(2-(hydroxymethyl)pyrrolidin-1-yl)-2-((1-(3,4,5-trimethoxyphenyl)-1H-imidazol-4-yl)amino)quinazolin-7-yl)phenyl)acetamide] | < 100 nM
11 | COc1cc(-n2cnc(Nc3nc4c(c(N5CCC[C@@H]5CO)n3)CN(C(=O)OC(C)(C)C)C4)c2)cc(OC)c1OC [Compound 366b, (R)-tert-butyl 4-(2-(hydroxymethyl)pyrrolidin-1-yl)-2-(1-(3,4,5-trimethoxyphenyl)-1H-imidazol-4-ylamino)-5H-pyrrolo[3,4-d]pyrimidine-6(7H)-carboxylate] | < 100 nM
12 | OC[C@@H]1CCCN1c1cc(Cl)c2ccccc2n1 [Compound 367b, (S)-(1-(4-chloroquinolin-2-yl)pyrrolidin-2-yl)methanol] | > 1000 nM
13 | COc1cc(-c2ccc(Nc3nc(N4CCC[C@H]4CO)nc4ccccc34)nc2)cc(OC)c1OC [Compound 370b, (S)-(1-(4-((5-(3,4,5-trimethoxyphenyl)pyridin-2-yl)amino)quinazolin-2-yl)pyrrolidin-2-yl)methanol] | > 1000 nM
14 | COc1cc(-n2cnc(Nc3nc(N4CCC[C@H]4CO)c4c(C)nn(C)c4n3)c2)cc(OC)c1OC [Compound 377b, (S)-(1-(1,3-dimethyl-6-((1-(3,4,5-trimethoxyphenyl)-1H-imidazol-4-yl)amino)-1H-pyrazolo[3,4-d]pyrimidin-4-yl)pyrrolidin-2-yl)methanol] | < 100 nM

Further lines, results first:

Row | IC50 | Structure (SMILES)
15 | < 100 nM | COc1cc(-n2cnc(Nc3nc(N4CCC[C@H]4CO)c4ccc(C#N)cc4n3)c2)cc(OC)c1OC [Compound 356b, (S)-4-(2-(hydroxymethyl)pyrrolidin-1-yl)-2-((1-(3,4,5-trimethoxyphenyl)-1H-imidazol-4-yl)amino)quinazoline-7-carbonitrile]
16 | < 100 nM | COc1cc(-n2cnc(Nc3nc(N4CCC[C@H]4CO)nc4cc(N5CCCCC5)ccc34)c2)cc(OC)c1OC [Compound 358a, (S)-(1-(7-(piperidin-1-yl)-4-((1-(3,4,5-trimethoxyphenyl)-1H-imidazol-4-yl)amino)quinazolin-2-yl)pyrrolidin-2-yl)methanol]
17 | < 100 nM | COc1cc(-n2cnc(Nc3nc4c(c(N5CCC[C@H]5CO)n3)CNC4)c2)cc(OC)c1OC [Compound 359d, (S)-(1-(2-(1-(3,4,5-trimethoxyphenyl)-1H-imidazol-4-ylamino)-6,7-dihydro-5H-pyrrolo[3,4-d]pyrimidin-4-yl)pyrrolidin-2-yl)methanol]
18 | < 100 nM | COc1cc(-n2cnc(Nc3nc(N4CCC[C@H]4C(N)=O)nc4c3CNC4)c2)cc(OC)c1OC [Compound 360c, (S)-1-(4-(1-(3,4,5-trimethoxyphenyl)-1H-imidazol-4-ylamino)-6,7-dihydro-5H-pyrrolo[3,4-d]pyrimidin-2-yl)pyrrolidine-2-carboxamide]
19 | < 100 nM | COc1cc(-n2cnc(Nc3nc(N4CCC[C@H]4CO)nc4c3CN(C(=O)OC(C)(C)C)C4)c2)cc(OC)c1OC [Compound 365a, (S)-tert-butyl 2-(2-(hydroxymethyl)pyrrolidin-1-yl)-4-(1-(3,4,5-trimethoxyphenyl)-1H-imidazol-4-ylamino)-5H-pyrrolo[3,4-d]pyrimidine-6(7H)-carboxylate]
20 | < 100 nM | COc1cc(-n2cnc(Nc3nc(N4CCC[C@H]4CO)nc4c3CNC4)c2)cc(OC)c1OC [Compound 365b, (S)-(1-(4-(1-(3,4,5-trimethoxyphenyl)-1H-imidazol-4-ylamino)-6,7-dihydro-5H-pyrrolo[3,4-d]pyrimidin-2-yl)pyrrolidin-2-yl)methanol]
21 | < 100 nM | COc1cc(-n2cnc(Nc3nc4c(c(N5CCC[C@@H]5CO)n3)CNC4)c2)cc(OC)c1OC [Compound 366c, (R)-(1-(2-(1-(3,4,5-trimethoxyphenyl)-1H-imidazol-4-ylamino)-6,7-dihydro-5H-pyrrolo[3,4-d]pyrimidin-4-yl)pyrrolidin-2-yl)methanol]
22 | 100 to 1000 nM | COc1cc(-n2cnc(Nc3cc(N4CCC[C@H]4CO)c4ccccc4n3)c2)cc(OC)c1OC [Compound 368a, (S)-(1-(2-(1-(3,4,5-trimethoxyphenyl)-1H-imidazol-4-ylamino)quinolin-4-yl)pyrrolidin-2-yl)methanol]
23 | 100 to 1000 nM | COc1cc(-n2cnc(Nc3cc4ccccc4c(N4CCC[C@@H]4CO)n3)c2)cc(OC)c1OC [Compound 369b, (R)-(1-(3-(1-(3,4,5-trimethoxyphenyl)-1H-imidazol-4-ylamino)isoquinolin-1-yl)pyrrolidin-2-yl)methanol]
24 | > 1000 nM | COc1cc(-c2ccc(Nc3nc(N4CCC[C@H]4C(N)=O)nc4ccccc34)nc2)cc(OC)c1OC [Compound 371a, (S)-1-(4-((5-(3,4,5-trimethoxyphenyl)pyridin-2-yl)amino)quinazolin-2-yl)pyrrolidine-2-carboxamide]
25 | < 100 nM | COc1cc(-n2cnc(Nc3nc(N4CCC[C@@H]4CO)nc4cc(C#N)ccc34)c2)cc(OC)c1OC [Compound 372a, (R)-2-(2-(hydroxymethyl)pyrrolidin-1-yl)-4-((1-(3,4,5-trimethoxyphenyl)-1H-imidazol-4-yl)amino)quinazoline-7-carbonitrile]
26 | > 1000 nM | COc1cc(-n2cnc(Nc3nc(N4CCC[C@H]4C(N)=O)nc4c3c(C)nn4C)c2)cc(OC)c1OC [Compound 373c, (S)-1-(1,3-dimethyl-4-((1-(3,4,5-trimethoxyphenyl)-1H-imidazol-4-yl)amino)-1H-pyrazolo[3,4-d]pyrimidin-6-yl)pyrrolidine-2-carboxamide]
27 | 100 to 1000 nM | COc1cc(-n2cnc(Nc3nc(N4CCC[C@H]4CO)nc4c3c(C)nn4C)c2)cc(OC)c1OC [Compound 374a, (S)-(1-(1,3-dimethyl-4-((1-(3,4,5-trimethoxyphenyl)-1H-imidazol-4-yl)amino)-1H-pyrazolo[3,4-d]pyrimidin-6-yl)pyrrolidin-2-yl)methanol]
28 | < 100 nM | COc1cc(-n2cnc(Nc3nc(N4CCC[C@H]4CO)nc4cc(N5CCN(C)CC5)ccc34)c2)cc(OC)c1OC [Compound 375a, (S)-(1-(7-(4-methylpiperazin-1-yl)-4-((1-(3,4,5-trimethoxyphenyl)-1H-imidazol-4-yl)amino)quinazolin-2-yl)pyrrolidin-2-yl)methanol]
29 | < 100 nM | COc1cc(-n2cnc(Nc3nc(N4CCC[C@H]4CO)nc4cc(N5CCNCC5)ccc34)c2)cc(OC)c1OC [Compound 376b, (S)-(1-(7-(piperazin-1-yl)-4-((1-(3,4,5-trimethoxyphenyl)-1H-imidazol-4-yl)amino)quinazolin-2-yl)pyrrolidin-2-yl)methanol]
30 | < 100 nM | COc1cc(-n2cnc(Nc3nc(N4CCC[C@H]4CO)nc4cnccc34)c2)cc(OC)c1OC [Compound 378c, (S)-(1-(4-((1-(3,4,5-trimethoxyphenyl)-1H-imidazol-4-yl)amino)pyrido[3,4-d]pyrimidin-2-yl)pyrrolidin-2-yl)methanol]
31 | < 100 nM | COc1cc(-n2cnc(Nc3nc(N4CCC[C@H]4C(N)=O)nc4cnccc34)c2)cc(OC)c1OC [Compound 379a, (S)-1-(4-((1-(3,4,5-trimethoxyphenyl)-1H-imidazol-4-yl)amino)pyrido[3,4-d]pyrimidin-2-yl)pyrrolidine-2-carboxamide]
